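Compound exposure: 48 hours, 5 concentrations, 96-well plates. TGI marks complete inhibition of growth.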
How the values were obtained:
Assay in all cases: NCI anticancer screen, dose series, 48 h
[1] = test system: 786-0 renal
[2] = test system: A498 renal
[3] = test system: A549 NSCLC
[4] = test system: ACHN renal
[5] = test system: BT-549 breast
[6] = test system: CAKI-1 renal
[7] = test system: CCRF-CEM leukemia
[8] = test system: COLO 205 colon
[9] = test system: DU-145 prostate
[10] = test system: EKVX NSCLC
[11] = test system: HCC-2998 colon
[12] = test system: HCT-116 colon
[13] = test system: HCT-15 colon
[14] = test system: HOP-62 NSCLC
[15] = test system: HOP-92 NSCLC
[16] = test system: HS 578T breast
[17] = test system: HT29 colon
[18] = test system: IGROV1 ovarian
[19] = test system: K-562 leukemia
[20] = test system: KM12 colon
[21] = test system: M14 melanoma
[22] = test system: MALME-3M melanoma
[23] = test system: MCF7 breast
[24] = test system: MDA-MB-231 breast
[25] = test system: MDA-MB-435
[26] = test system: MDA-N
[27] = test system: MOLT-4 leukemia
[28] = test system: NCI-H226 lung
[29] = test system: NCI-H23 lung
[30] = test system: NCI-H460 lung
[31] = test system: NCI-H522 lung
[32] = test system: NCI/ADR-RES ovarian
[33] = test system: OVCAR-3 ovarian
[34] = test system: OVCAR-4 ovarian
[35] = test system: OVCAR-5 ovarian
[36] = test system: OVCAR-8 ovarian
[37] = test system: PC-3 prostate
[38] = test system: RPMI-8226 leukemia
[39] = test system: RXF 393 renal
[40] = test system: SF-268 CNS
[41] = test system: SF-295 CNS
[42] = test system: SF-539 CNS
[43] = test system: SK-MEL-2 melanoma
[44] = test system: SK-MEL-28 melanoma
[45] = test system: SK-MEL-5 melanoma
[46] = test system: SK-OV-3 ovarian
[47] = test system: SN12C renal
[48] = test system: SNB-19 CNS
[49] = test system: SNB-75 CNS
[50] = test system: SR leukemia
[51] = test system: SW-620 colon
[52] = test system: T-47D breast
[53] = test system: TK-10 renal
[54] = test system: U251 CNS
[55] = test system: UACC-257 melanoma
[56] = test system: UACC-62 melanoma
[57] = test system: UO-31 renal
[58] = test system: HL-60(TB) leukemia
[59] = test system: LOX IMVI melanoma

## COC(=O)c1cc(=O)n(-c2ccc3nn(C)nc3c2)cc1C(=O)OC
[1]
  TGI: > 100 µM
[2]
  TGI: > 100 µM
[3]
  TGI: > 100 µM
[4]
  TGI: > 100 µM
[5]
  TGI: > 100 µM
[6]
  TGI: > 100 µM
[7]
  TGI: > 100 µM
[8]
  TGI: > 100 µM
[9]
  TGI: > 100 µM
[10]
  TGI: > 100 µM
[11]
  TGI: > 100 µM
[12]
  TGI: > 100 µM
[13]
  TGI: > 100 µM
[14]
  TGI: > 100 µM
[15]
  TGI: > 100 µM
[16]
  TGI: > 100 µM
[17]
  TGI: > 100 µM
[18]
  TGI: > 100 µM
[19]
  TGI: > 100 µM
[20]
  TGI: > 100 µM
[21]
  TGI: > 100 µM
[22]
  TGI: > 100 µM
[23]
  TGI: > 100 µM
[24]
  TGI: > 100 µM
[25]
  TGI: > 100 µM
[26]
  TGI: > 100 µM
[27]
  TGI: > 100 µM
[28]
  TGI: > 100 µM
[29]
  TGI: > 100 µM
[30]
  TGI: > 100 µM
[31]
  TGI: > 100 µM
[32]
  TGI: > 100 µM
[33]
  TGI: > 100 µM
[34]
  TGI: > 100 µM
[35]
  TGI: > 100 µM
[36]
  TGI: > 100 µM
[37]
  TGI: > 100 µM
[38]
  TGI: > 100 µM
[39]
  TGI: > 100 µM
[40]
  TGI: > 100 µM
[41]
  TGI: > 100 µM
[42]
  TGI: > 100 µM
[43]
  TGI: > 100 µM
[44]
  TGI: > 100 µM
[45]
  TGI: > 100 µM
[46]
  TGI: > 100 µM
[47]
  TGI: > 100 µM
[48]
  TGI: > 100 µM
[49]
  TGI: > 100 µM
[50]
  TGI: > 100 µM
[51]
  TGI: > 100 µM
[52]
  TGI: > 100 µM
[53]
  TGI: > 100 µM
[54]
  TGI: > 100 µM
[55]
  TGI: > 100 µM
[56]
  TGI: > 100 µM
[57]
  TGI: > 100 µM

## CCCCNS(=O)(=O)c1n[nH]c(=O)[nH]c1=O
[1]
  TGI: > 100 µM
[2]
  TGI: > 100 µM
[3]
  TGI: > 100 µM
[4]
  TGI: > 100 µM
[5]
  TGI: > 100 µM
[6]
  TGI: > 100 µM
[7]
  TGI: 35.7 µM
[8]
  TGI: > 100 µM
[9]
  TGI: > 100 µM
[10]
  TGI: > 100 µM
[12]
  TGI: > 100 µM
[13]
  TGI: > 100 µM
[58]
  TGI: > 100 µM
[14]
  TGI: > 100 µM
[16]
  TGI: > 100 µM
[17]
  TGI: > 100 µM
[18]
  TGI: > 100 µM
[19]
  TGI: > 100 µM
[20]
  TGI: > 100 µM
[59]
  TGI: > 100 µM
[21]
  TGI: > 100 µM
[22]
  TGI: > 100 µM
[23]
  TGI: > 100 µM
[24]
  TGI: > 100 µM
[25]
  TGI: > 100 µM
[26]
  TGI: > 100 µM
[27]
  TGI: > 100 µM
[28]
  TGI: > 100 µM
[29]
  TGI: > 100 µM
[30]
  TGI: > 100 µM
[31]
  TGI: > 100 µM
[32]
  TGI: > 100 µM
[33]
  TGI: > 100 µM
[34]
  TGI: > 100 µM
[35]
  TGI: > 100 µM
[36]
  TGI: > 100 µM
[37]
  TGI: > 100 µM
[38]
  TGI: > 100 µM
[39]
  TGI: > 100 µM
[40]
  TGI: > 100 µM
[41]
  TGI: > 100 µM
[42]
  TGI: > 100 µM
[43]
  TGI: > 100 µM
[44]
  TGI: > 100 µM
[45]
  TGI: > 100 µM
[46]
  TGI: > 100 µM
[47]
  TGI: > 100 µM
[48]
  TGI: > 100 µM
[49]
  TGI: > 100 µM
[50]
  TGI: > 100 µM
[51]
  TGI: > 100 µM
[52]
  TGI: > 100 µM
[54]
  TGI: > 100 µM
[56]
  TGI: > 100 µM
[57]
  TGI: > 100 µM
